From article PMC7926352, “Synthesis, Characterization and In Vitro Evaluation of Novel 5-Ene-thiazolo[3,2-b][1,2,4]triazole-6(5H)-ones as Possible Anticancer Agents” (Molecules, 2021)
Read-outs that look alike come from different tables or passages of the source.

Tests used:
[1] = tested on: panel of approximately sixty human tumor cell lines; test: NCI-60 human tumor cell lines screen (SRB), full panel; format: cell-based; details: for activity at 10 µM: 60 cell lines assay in one dose, 48 h
Procedure: Compounds 2a, 2c–f, 2h–l, 3, 5e, 5f were selected for antitumor activity which was performed according to the standard protocols of National Cancer Institute (NCI, Bethesda, MD, USA) Developmental Therapeutic Program (DTP). At the prescreening stage, the compounds were evaluated for antitumor activity at the concentration of 10 µM against a panel of approximately sixty cancer cell lines representing different types of cancer including leukemia, melanoma, lung, colon, CNS, ovarian, renal, prostate and breast cancers.
Among them, three compounds (2d, 2h, 2i) presented excellent cytotoxic and four derivatives (2d, 2h, 2i, 2k) cytostatic properties in one or more cell lines when applied at a concentration of 10 µM. […] The outcomes were calculated and presented in the form of three response parameters (GI50, TGI and LC50) for each cell line via growth percentage inhibition curves. […]
The primary anticancer assay was performed on a panel of approximately sixty human tumor cell lines derived from nine neoplastic diseases (leukemia, melanoma, lung, colon, CNS, ovarian, renal, prostate, and breast cancers), in accordance with the protocol of the National Cancer Institute Drug Evaluation Branch (Bethesda, MD, USA). Tested compounds were added to the culture at a single concentration (10^−5 M) and the cultures were incubated for 48 h. End-point determinations were made with a protein-binding dye, sulforhodamine B (SRB). Results for each tested compound were reported as the percentage of the growth of the treated cells when compared to the untreated control cells. The percentage of the growth was evaluated spectrophotometrically versus controls not treated with test agents. […] Using absorbance measurements [time zero (Tz), control growth in the absence of drug (C), and test growth in the presence of the drug (Ti)], the percentage growth was calculated for each drug concentration. Percentage growth inhibition was calculated as:[(Ti − Tz)/[…]] × 100(1) for concentrations for which Ti ≥ Tz, [(Ti − Tz)/Tz] × 100 for concentrations for which Ti < Tz. Dose-response parameters (GI50, TGI) were calculated for each compound. Growth inhibition of 50% (GI50) was calculated from [(Ti − Tz)/(C − Tz)] × 100 = 50, which is the drug concentration resulting in a 50% lower net protein increase in the treated cells (measured by SRB staining) as compared to the net protein increase seen in the control cells. The drug concentration resulting in total growth inhibition (TGI) was calculated from Ti = Tz. Values were calculated for each of these parameters if the level of activity was reached; however, if the effect was not reached or was excessive, the value for that parameter was expressed as more or less than the maximum or minimum concentration tested. The lowest values were obtained with the most sensitive cell lines. Compounds having GI50 values ≤ 100 μM were declared to be active. The selectivity index (SI) calculated by dividing the full panel MG_MID (full-panel mean-graph midpoint) (μM) of the compounds 2h and 2i by their individual subpanel MG_MID of a cell line (μM) was considered as a measure of compounds’ selectivity. Ratios between 3 and 6 mean moderate selectivity, ratios greater than 6 indicate high selectivity toward the corresponding cell line, while compounds not meeting either of these criteria are rated nonselective.

[2] = tested on: NSCLC (Non-small Cell Lung Cancer) cell lines; details: for GI50 / CC50: Homo sapiens
[3] = tested on: Ovarian Cancer cell lines; details: for GI50 / CC50: Homo sapiens
[4] = tested on: Prostate Cancer cell lines; details: for GI50 / CC50: Homo sapiens
[5] = read-out: GI50, values range inside panel
[6] = read-out: LC50, values range inside panel

Compound `O=C(COc1ccc(Cl)cc1/C=c1\sc2ncnn2c1=O)Nc1ccc(Cl)cc1` [Compound 2h, (Z)-2-(4-Chloro-2-((6-oxothiazolo[3,2-b][1,2,4]triazol-5(6H)-ylidene)methyl)phenoxy)-N-(4-chlorophenyl)acetamide] has an activity at 10 µM ([1]; Homo sapiens, 10 μM, read-out: Mean Growth, %) of 29%, an activity at 10 µM ([1]; Homo sapiens, 10 μM, read-out: Range of Growth, %) of -48 to 122% and a GI50 ([1]; Homo sapiens, full panel average, read-out: GI50, Total MG_MID) of 3.54 µM. For the same compound, the CC50 ([1]; Homo sapiens, full panel average, read-out: LC50, Total MG_MID) was 37.1 µM, the “TGI, Total MG_MID” value ([1]; full panel average) was 12.88 µM and the “Positive Cytostatic Effect” value ([1]; one dose, 10 μM, ratio of number of cell lines with percent growth from 0 to 50 to total number of cell lines) was 30/57. The “Positive Cytotoxic Effect” value ([1]; one dose, 10 μM, ratio of number of cell lines with percent growth of <0 to total number of cell lines) was 12/57, the GI50 (CCRF-CEM; Homo sapiens) was 1.35 µM and the CC50 (CCRF-CEM; Homo sapiens, read-out: LC50) was 7.58 µM. The TGI (CCRF-CEM; Leukemia) was 3.16 µM, the GI50 (RPMI-8226; Homo sapiens, RPMI-8226) was 1.69 µM and the CC50 (RPMI-8226; Homo sapiens, RPMI-8226, read-out: LC50) was 26.9 µM. For the same compound, the TGI (RPMI-8226; RPMI-8226, Leukemia) was 4.89 µM, the GI50 (NCI-H460; Homo sapiens, NCI-H460) was 11.5 µM and the CC50 (NCI-H460; Homo sapiens, NCI-H460, read-out: LC50) was 49 µM. It also gave a TGI (NCI-H460; NCI-H460, NSCLC) of 23.44 µM, a GI50 (NCI-H522; Homo sapiens, NCI-H522) of 3.16 µM and a CC50 (NCI-H522; Homo sapiens, NCI-H522, read-out: LC50) of 38 µM. The TGI (NCI-H522; NCI-H522, NSCLC) was 9.99 µM, the GI50 (MALME-3M; Homo sapiens, Malme-3M) was 7.94 µM and the CC50 (MALME-3M; Homo sapiens, Malme-3M, read-out: LC50) was 45.7 µM. The TGI (MALME-3M; MALME-3M, Melanoma) was 20.89 µM, the GI50 (SK-MEL-5; Homo sapiens, SK-MEL-5) was 3.23 µM and the CC50 (SK-MEL-5; Homo sapiens, SK-MEL-5, read-out: LC50) was 38 µM. It also gave a TGI (SK-MEL-5; SK-MEL-5, Melanoma) of 14.79 µM, a GI50 (OVCAR-4; Homo sapiens, OVCAR-4) of 8.91 µM and a CC50 (OVCAR-4; Homo sapiens, OVCAR-4, read-out: LC50) of 97.7 µM. The TGI (OVCAR-4; OVCAR-4, Ovarian Cancer) was 30.90 µM, the GI50 (OVCAR-5; Homo sapiens, OVCAR-5) was 11.2 µM and the CC50 (OVCAR-5; Homo sapiens, OVCAR-5, read-out: LC50) was 47.9 µM. The TGI (OVCAR-5; OVCAR-5, Ovarian Cancer) was 23.44 µM, the GI50 (SK-OV-3; Homo sapiens, SK-OV-3) was 15.5 µM and the CC50 (SK-OV-3; Homo sapiens, SK-OV-3, read-out: LC50) was 53.7 µM. For the same compound, the TGI (SK-OV-3; SK-OV-3, Ovarian Cancer) was 28.84 µM, the TGI (A498; A498, Renal Cancer) was 22.38 µM and the GI50 (A498; Homo sapiens, A498) was 10.5 µM. The CC50 (A498; Homo sapiens, A498, read-out: LC50) was 46.8 µM, the GI50 (RXF 393; Homo sapiens, RXF 393) was 1.9 µM and the CC50 (RXF 393; Homo sapiens, RXF 393, read-out: LC50) was 36.3 µM. It also gave a TGI (RXF 393; RXF 393, Renal Cancer) of 8.51 µM, a GI50 (UO-31; Homo sapiens, UO-31) of 2.29 µM and a CC50 (UO-31; Homo sapiens, UO-31, read-out: LC50) of 44.7 µM. For the same compound, the TGI (UO-31; UO-31, Renal Cancer) was 17.37 µM, the GI50 (MDA-MB-231/ATCC; Homo sapiens, MDA-MB-231) was < 0.01 µM and the CC50 (MDA-MB-231/ATCC; Homo sapiens, MDA-MB-231, read-out: LC50) was 75.9 µM. For the same compound, the TGI (MDA-MB-231/ATCC; MDA-MB-231/ATCC, Breast Cancer) was 11.48 µM, the GI50 ([2]; read-out: GI50, panel MG_MID) was 6.98 µM and the GI50 [2, 5] was 2.29 to 15.5 µM. For the same compound, the CC50 ([2]; read-out: LC50, panel MG_MID) was 44 µM, the CC50 [2, 6] was 31.6 to 60.2 µM and the “TGI, panel MG_MID” value ([2]; NSCLC subpanel) was 18.22 µM. For the same compound, the “TGI, values range inside panel” value ([2]; NSCLC subpanel) was 9.99 to 30.90 µM, the GI50 ([3]; read-out: GI50, panel MG_MID) was 8.05 µM and the GI50 [3, 5] was 2.11 to 15.5 µM. The CC50 ([3]; read-out: LC50, panel MG_MID) was 52.1 µM, the CC50 [3, 6] was 19.5 to 97.7 µM and the “TGI, panel MG_MID” value ([3]; Ovarian Cancer subpanel) was 20.34 µM. For the same compound, the “TGI, values range inside panel” value ([3]; Ovarian Cancer subpanel) was 5.62 to 30.90 µM, the GI50 ([4]; read-out: GI50, panel MG_MID) was 2.67 µM and the GI50 [4, 5] was 1.54 to 3.8 µM. The CC50 ([4]; read-out: LC50, panel MG_MID) was 30.8 µM, the CC50 [4, 6] was 15.8 to 45.7 µM and the “TGI, panel MG_MID” value ([4]; Prostate Cancer subpanel) was 10.34 µM. The “TGI, values range inside panel” value ([4]; Prostate Cancer subpanel) was 4.46 to 16.21 µM.
